Patent US12201635B2, “Multi-target kinase inhibitor, pharmaceutical composition, and preparation method for multi-target kinase inhibitor and use thereof” (GUANGZHOU LIUSHUN BIOTECHNOLOGY CO., LTD., priority 2019, dated 2025)

What was measured:
RET = RET (Homo sapiens, UniProt P07949); assay: Z'-LYTE kinase inhibition assay, RET; assay type: biochemical
Method: (§1) 1. The compounds to be detected were accurately weighed and added into DMSO to form stock solutions, which were then diluted to desired concentrations with a buffer to give solutions of the compounds to be detected.
(§2) 2. An RET or VEGFR3 or PDGFRA kinase solution, corresponding substrate solutions of Z′-LYTE, a buffer or a compound to be detected and ATP were added into a 384 reaction vessel, and reacted at room temperature for 1 h.
(§3) 3. To each well was added a fluorescence enhancer, followed by incubation at room temperature for 1 h.
(§4) 4. Data were read separately using a fluorescence analyzer.
(§5) 1. The relative inhibitory rate for each well was calculated according to a formula.
(§6) 2. Active samples were diluted and tested for relative inhibitory rates, and the inhibitory rates IC50 were calculated by plotting in the software Xlfit.

SMMC-7721 hepatoma = assay: In vivo anti-tumor activity, nude mouse tumor model of SMMC-7721 liver cancer; settings: SMMC-7721 liver cancer mice
Excerpt: (§7) In this example, the in vivo anti-tumor activity (liver cancer/esophageal cancer) of the multi-target kinase inhibitor [Compound (I-1)] was investigated according to the requirements in Guidelines for Pharmacodynamics of Anti-tumor Drugs. The experimental procedures and results are as follows:
(§8) Tumor models of nude mice were established using […] heptoma cells and KYSE 410 esophageal cancer cells that meet modeling conditions. The modeled mice were divided into 5 groups: a model group, a Compound (I-1) 5 mg/kg group, a Compound (I-1) 10 mg/kg group, a Compound (I-1) 20 mg/kg group, and a positive control group (sorafenib or cabozantinib). Administration was performed from the day of grouping that was counted as day 1 and for 21 consecutive days, and the 21st day was counted as day21. Tumor volumes were measured twice a week during the period of administration for statistical test.

PDGFRA = PDGFRA (Homo sapiens, UniProt P16234); assay: Z'-LYTE kinase inhibition assay, PDGFRA; assay type: biochemical
Chain of PDGFRA (P16234 24-1089): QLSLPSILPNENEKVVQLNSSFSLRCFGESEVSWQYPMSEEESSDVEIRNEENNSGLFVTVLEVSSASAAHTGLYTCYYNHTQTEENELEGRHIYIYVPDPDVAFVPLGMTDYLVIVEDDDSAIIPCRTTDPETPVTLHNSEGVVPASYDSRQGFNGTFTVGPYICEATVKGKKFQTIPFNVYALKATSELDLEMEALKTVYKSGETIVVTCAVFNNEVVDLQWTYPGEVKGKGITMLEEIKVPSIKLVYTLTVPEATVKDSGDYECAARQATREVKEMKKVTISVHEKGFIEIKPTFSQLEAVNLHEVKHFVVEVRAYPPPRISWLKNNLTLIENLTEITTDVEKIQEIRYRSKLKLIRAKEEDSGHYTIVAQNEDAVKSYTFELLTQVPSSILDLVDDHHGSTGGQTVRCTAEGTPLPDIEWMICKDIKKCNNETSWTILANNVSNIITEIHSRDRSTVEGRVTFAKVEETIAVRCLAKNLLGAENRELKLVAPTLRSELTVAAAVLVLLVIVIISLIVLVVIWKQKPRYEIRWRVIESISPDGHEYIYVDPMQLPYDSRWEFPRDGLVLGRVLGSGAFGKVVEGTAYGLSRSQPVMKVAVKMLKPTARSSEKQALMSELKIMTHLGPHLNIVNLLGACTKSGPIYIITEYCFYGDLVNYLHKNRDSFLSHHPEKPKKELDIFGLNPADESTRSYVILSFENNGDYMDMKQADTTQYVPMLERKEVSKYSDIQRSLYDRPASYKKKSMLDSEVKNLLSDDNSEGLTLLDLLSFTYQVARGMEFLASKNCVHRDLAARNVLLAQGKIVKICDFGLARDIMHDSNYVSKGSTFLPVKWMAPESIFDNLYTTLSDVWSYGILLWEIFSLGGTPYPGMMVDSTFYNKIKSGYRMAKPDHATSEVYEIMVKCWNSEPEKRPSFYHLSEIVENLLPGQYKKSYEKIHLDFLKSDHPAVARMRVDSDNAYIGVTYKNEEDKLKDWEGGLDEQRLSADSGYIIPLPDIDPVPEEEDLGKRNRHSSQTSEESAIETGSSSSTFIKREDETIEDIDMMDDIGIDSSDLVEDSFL
Method: as §1, §2, §3, §4, §5, §6

VEGFR3 = VEGFR3 (Homo sapiens, UniProt P35916); assay: Z'-LYTE kinase inhibition assay, VEGFR3; assay type: biochemical
Chain of VEGFR3 (P35916 25-1363): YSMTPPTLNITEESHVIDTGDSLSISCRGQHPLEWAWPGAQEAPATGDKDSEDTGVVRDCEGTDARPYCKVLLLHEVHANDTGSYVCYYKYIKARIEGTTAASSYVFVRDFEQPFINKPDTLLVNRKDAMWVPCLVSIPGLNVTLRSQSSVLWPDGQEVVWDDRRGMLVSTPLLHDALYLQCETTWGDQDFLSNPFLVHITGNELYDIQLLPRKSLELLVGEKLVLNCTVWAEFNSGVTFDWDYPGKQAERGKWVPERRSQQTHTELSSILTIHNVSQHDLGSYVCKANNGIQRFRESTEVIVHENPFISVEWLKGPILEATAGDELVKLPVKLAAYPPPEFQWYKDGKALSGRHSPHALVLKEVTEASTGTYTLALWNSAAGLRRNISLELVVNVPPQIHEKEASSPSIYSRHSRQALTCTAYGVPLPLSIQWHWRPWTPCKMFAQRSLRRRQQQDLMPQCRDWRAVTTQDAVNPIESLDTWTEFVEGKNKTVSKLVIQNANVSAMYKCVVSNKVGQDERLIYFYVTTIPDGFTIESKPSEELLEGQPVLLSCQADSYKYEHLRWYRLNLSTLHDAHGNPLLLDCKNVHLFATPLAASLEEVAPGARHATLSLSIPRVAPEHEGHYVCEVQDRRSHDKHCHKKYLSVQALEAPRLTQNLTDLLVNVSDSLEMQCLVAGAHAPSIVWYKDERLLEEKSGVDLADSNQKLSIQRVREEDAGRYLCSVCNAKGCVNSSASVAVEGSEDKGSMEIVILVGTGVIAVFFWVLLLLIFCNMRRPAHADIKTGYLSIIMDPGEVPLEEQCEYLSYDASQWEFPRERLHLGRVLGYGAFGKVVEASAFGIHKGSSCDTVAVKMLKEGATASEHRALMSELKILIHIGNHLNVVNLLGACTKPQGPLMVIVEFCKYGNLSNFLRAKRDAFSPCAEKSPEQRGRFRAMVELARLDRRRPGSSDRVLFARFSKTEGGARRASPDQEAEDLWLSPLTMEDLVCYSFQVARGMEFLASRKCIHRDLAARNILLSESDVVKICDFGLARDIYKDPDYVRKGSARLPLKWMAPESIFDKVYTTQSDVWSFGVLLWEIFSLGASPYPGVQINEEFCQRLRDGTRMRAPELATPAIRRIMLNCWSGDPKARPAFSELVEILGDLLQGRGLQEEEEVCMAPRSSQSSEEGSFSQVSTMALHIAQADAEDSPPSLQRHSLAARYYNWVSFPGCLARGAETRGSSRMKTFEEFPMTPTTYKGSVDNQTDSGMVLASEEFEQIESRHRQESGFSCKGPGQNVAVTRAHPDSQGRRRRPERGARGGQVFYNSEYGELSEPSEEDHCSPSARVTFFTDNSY
Method: as §1, §2, §3, §4, §5, §6

[1] = tested on: KYSE 410 esophageal cancer; assay: In vivo anti-tumor activity, nude mouse tumor model of KYSE 410 esophageal cancer; settings: KYSE 410 esophageal cancer mice
Excerpt: as §7, §8

[2] = 5, 10 and 20 mg/kg, 21 consecutive days, day21 ANOVA P<0.0001
[3] = 10 and 20 mg/kg, positive control sorafenib or cabozantinib

Chain of RET (P07949 29-1114): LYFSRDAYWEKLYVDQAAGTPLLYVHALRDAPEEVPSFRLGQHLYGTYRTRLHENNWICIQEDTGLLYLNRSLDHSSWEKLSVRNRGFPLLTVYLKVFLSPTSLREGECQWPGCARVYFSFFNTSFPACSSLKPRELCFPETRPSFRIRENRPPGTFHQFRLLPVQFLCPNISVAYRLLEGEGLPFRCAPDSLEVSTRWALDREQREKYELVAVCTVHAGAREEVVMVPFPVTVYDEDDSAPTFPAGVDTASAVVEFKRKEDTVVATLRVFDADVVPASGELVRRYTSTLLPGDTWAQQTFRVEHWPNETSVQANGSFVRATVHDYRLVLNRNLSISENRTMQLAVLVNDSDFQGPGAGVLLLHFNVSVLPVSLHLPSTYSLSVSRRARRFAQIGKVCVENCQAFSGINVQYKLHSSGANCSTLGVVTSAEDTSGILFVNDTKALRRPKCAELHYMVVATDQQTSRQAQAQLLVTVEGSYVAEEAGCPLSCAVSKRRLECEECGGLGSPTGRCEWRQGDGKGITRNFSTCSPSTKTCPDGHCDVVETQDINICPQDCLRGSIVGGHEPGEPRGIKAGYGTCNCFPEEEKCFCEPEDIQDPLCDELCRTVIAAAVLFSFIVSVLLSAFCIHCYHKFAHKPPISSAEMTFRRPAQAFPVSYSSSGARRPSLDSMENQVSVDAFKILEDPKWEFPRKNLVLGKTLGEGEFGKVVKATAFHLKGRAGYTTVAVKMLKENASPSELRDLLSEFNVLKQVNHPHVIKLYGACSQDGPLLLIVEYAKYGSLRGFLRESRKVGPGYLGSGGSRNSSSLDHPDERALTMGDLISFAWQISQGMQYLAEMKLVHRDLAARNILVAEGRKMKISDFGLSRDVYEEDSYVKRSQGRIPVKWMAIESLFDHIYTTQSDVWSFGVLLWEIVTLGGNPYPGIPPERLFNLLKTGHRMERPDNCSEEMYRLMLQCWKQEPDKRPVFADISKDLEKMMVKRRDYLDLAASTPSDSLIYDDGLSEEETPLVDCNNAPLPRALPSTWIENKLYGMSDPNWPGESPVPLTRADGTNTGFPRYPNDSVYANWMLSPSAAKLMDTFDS

Row | SMILES | IC50 (RET) [nM] | IC50 (PDGFRA) [nM] | IC50 (VEGFR3) [nM] | Tumor volume compared with the model group (SMMC-7721 hepatoma; [2]) | Tumor volume compared with the positive control group (SMMC-7721 hepatoma; [3]) | Tumor volume compared with the model group [1, 2] | Tumor volume compared with the positive control group [1, 3]
1 | COc1cc2ncnc(Oc3ccc(NC(=O)NC4CCC4)cc3)c2cc1OC [Compound I-2] | 37 | 308 | 16 |  |  |  | 
2 | COc1cc2ncnc(Oc3ccc(NC(=O)NC4CCCC4)cc3)c2cc1OC [Compound I-3] | 85 | 62 | 9 |  |  |  | 
3 | COc1cc2ncnc(Oc3ccc(NC(=O)N4CCCC4)cc3)c2cc1OC [Compound I-5] | 102 | 124 | 213 |  |  |  | 
4 | COc1cc2ncnc(Oc3ccc(NC(=O)N4CCCCC4)cc3)c2cc1OC [Compound I-6] | 251 | 632 | 328 |  |  |  | 

Now those with a lower IC50 (RET), led by results:

Row | IC50 (RET) [nM] | IC50 (PDGFRA) [nM] | IC50 (VEGFR3) [nM] | SMILES | Tumor volume compared with the model group (SMMC-7721 hepatoma; [2]) | Tumor volume compared with the positive control group (SMMC-7721 hepatoma; [3]) | Tumor volume compared with the model group [1, 2] | Tumor volume compared with the positive control group [1, 3]
5 | 26 | 52 | 65 | C=CNC(=O)Nc1ccc(Oc2ncnc3cc(OC)c(OC)cc23)cc1 [Compound I-4] |  |  |  | 
6 | 12 | 60 | 30 | COc1cc2ncnc(Oc3ccc(NC(=O)NC4CC4)cc3)c2cc1OC [Compound I-1] | lower tumor volumes | lower tumor volumes | lower tumor volumes | lower tumor volumes
